Several values for one entry are separate records, joined by “and”; a condition that tells them apart may be missing. Equal entries are not always repeated.
How the values were obtained:
S. mansoni TGR = target: T1, S. mansoni TGR (Schistosoma mansoni, UniProt Q962Y6); assay: S. mansoni TGR enzyme inhibition (DTNB reduction); type: biochemical
T1 construct: made in house
T1 sequence (Q962Y6 1-598): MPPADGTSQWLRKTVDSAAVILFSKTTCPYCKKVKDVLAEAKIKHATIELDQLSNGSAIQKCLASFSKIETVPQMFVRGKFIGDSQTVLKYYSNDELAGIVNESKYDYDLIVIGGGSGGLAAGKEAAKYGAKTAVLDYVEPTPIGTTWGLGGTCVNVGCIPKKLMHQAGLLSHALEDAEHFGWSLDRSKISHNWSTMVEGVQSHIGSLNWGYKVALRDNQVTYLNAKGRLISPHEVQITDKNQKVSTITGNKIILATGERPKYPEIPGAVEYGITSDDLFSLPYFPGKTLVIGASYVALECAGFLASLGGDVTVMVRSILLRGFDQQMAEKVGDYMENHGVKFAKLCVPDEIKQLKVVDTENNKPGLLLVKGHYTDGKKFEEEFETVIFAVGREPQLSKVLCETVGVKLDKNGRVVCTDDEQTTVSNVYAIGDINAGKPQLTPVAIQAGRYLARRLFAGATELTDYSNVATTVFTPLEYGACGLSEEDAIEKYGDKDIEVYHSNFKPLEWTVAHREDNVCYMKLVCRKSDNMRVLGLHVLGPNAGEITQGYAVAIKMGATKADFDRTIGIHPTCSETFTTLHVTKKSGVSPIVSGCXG
Description: Recombinant TGR, human TrxR1, B. malayi (Bm)TrxR and human GR proteins were expressed and purified as described[20],[69],[79]. The codon optimized sequence for P. falciparum (PfTrxR, https://www.ncbi.nlm.nih.gov/protein/CAA60574.1/) with an N-terminal 6-His tag was synthesized and inserted into pET15b (GenScript) and expressed in BL21 (DE3) cells and purified as described for human GR[20]. TGR and TrxR enzyme inhibition assays were performed in triplicate at 25 °C as described[20] in 0.1 M potassium phosphate (pH 7.4), 10 mM EDTA, 100 µM NADPH and 0.01% Tween-20. […] The reaction was started with addition of an equal volume of DTNB (6 mM) and NADPH (100 µM) and the increase in A412 during the first 3 min was recorded. […] The reaction was preincubated for 15 min. Activity was initiated with the addition of 1 mM GSSG and 100 μM NADPH and initial rates of NADPH oxidation were monitored at 340 nm. The reactions were done in triplicate. The IC50 was calculated in GraphPad Prism.

recombinant TGR = target: T2, recombinant TGR (Schistosoma mansoni, UniProt Q962Y6); assay: Photolabeling of TGR with PRP; type: binding, S. mansoni; details: for 800 nm Normalized Signal: TGR 1 µM
T2 construct: made in house
Description: […] The photocrosslinking and CuAAC click biotinylation were performed as previously described by our group. After resolving samples on SDS-PAGE and nitrocellulose membrane transfer, western blot normalization was performed with the Licor Revert™ 700 Total Protein Stain Kit as described in their protocol. Protein was finally imaged with the Licor IRDye® 800CW streptavidin on the Odyssey Sa imager.

[1] = target: S. mansoni histone deacetylase 8 (Schistosoma mansoni, UniProt A5H660); assay: Photolabeling of control protein SmHDAC8 with PRP; type: binding; details: for 800 nm Normalized Signal: SmHDAC8 1 µM
Sequence of S. mansoni histone deacetylase 8 (A5H660 entry or part of it): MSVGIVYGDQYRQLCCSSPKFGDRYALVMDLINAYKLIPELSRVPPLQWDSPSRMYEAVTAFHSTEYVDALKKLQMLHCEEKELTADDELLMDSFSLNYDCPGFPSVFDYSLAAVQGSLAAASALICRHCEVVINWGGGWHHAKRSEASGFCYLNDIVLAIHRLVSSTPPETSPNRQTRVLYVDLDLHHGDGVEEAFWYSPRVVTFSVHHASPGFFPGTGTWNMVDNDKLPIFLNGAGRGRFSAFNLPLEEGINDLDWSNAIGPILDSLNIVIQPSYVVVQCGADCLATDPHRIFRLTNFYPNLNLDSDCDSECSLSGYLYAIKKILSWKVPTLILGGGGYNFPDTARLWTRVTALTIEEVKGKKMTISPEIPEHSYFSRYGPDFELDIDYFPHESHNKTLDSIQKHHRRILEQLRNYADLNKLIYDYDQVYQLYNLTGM
Description: TGR (1 µM) or SmHDAC8 (1 µM) was incubated at concentrations of either 5 or 50 µM PRP with or without 100 µM NADPH totaling eight samples. The photocrosslinking and CuAAC click biotinylation were performed as previously described by our group. After resolving samples on SDS-PAGE and nitrocellulose membrane transfer, western blot normalization was performed with the Licor Revert™ 700 Total Protein Stain Kit as described in their protocol. Protein was finally imaged with the Licor IRDye® 800CW streptavidin on the Odyssey Sa imager.

TGR [2] = target: T3, TGR (Schistosoma mansoni, UniProt Q962Y6); assay: Reversibility by jump dilution; type: biochemical
T3 construct: made in house
T3 sequence (Q962Y6 1-598): T1 sequence (Q962Y6 1-598)
Description: A reaction of 370 nM TGR, 100 µM NADPH, and 250 µM inhibitor was incubated for 15 min at room temperature. A 100x dilution of the reaction was made and the activity was determined immediately and after 60 min.

TGR [3] = target: T4, TGR (Schistosoma mansoni, UniProt Q962Y6, X597U); assay: NADPH consumption (oxidase activity); type: biochemical, S. mansoni
T4 construct: made in house
Description: TRi-1, Stattic (both at 50 µM) and AF (20 µM) were incubated with 1 ml of 500 nM TGR and 100 µM NADPH in TGR reaction buffer for 30 min. The samples were desalted using a Zeba spin desalting column (Thermo Fisher Scientific) and 100 µl of the desalted sample was combined with 100 µl of 100 µM NADPH. NADPH consumption was monitored at 340 nm in triplicate. Compounds 1, 4, 6, and 7 (50 µM) were tested in the same fashion without the desalting step and with a first incubation step of 30 min for 6 and 7 and 2 h for 1 and 4.

TGR [4] = target: T4, TGR; assay: Superoxide production (pyrogallol red); type: biochemical, S. mansoni; details: replicates
Description: The production of superoxide by TGR was determined by monitoring reaction of superoxide with pyrogallol red[80]. Briefly, a 1 ml reaction mix (500 nM TGR, 100 µM NADPH, and 20–50 µM inhibitor) was incubated at room temperature for 30 min for fast inhibitors, or 2 h for slow inhibitors. For irreversible inhibitor controls TRi-1 (synthesized in house as reported[45]), Stattic (Cayman Chemical), and AF (Cayman Chemical), the samples were desalted using a Zeba spin desalting column. 100 µL of sample was combined with pyrogallol buffer with and without superoxide dismutase (SOD) (50 µM pyrogallol red, 300 µM NADPH; ± 10 units SOD). The reaction was measured at A340 and A540 simultaneously for 2 h.

[5] = Reactivity with GSH or N-Boc protected methyl ester of selenocysteine (LCMS); type: physicochemical; details: up to 120 h
Description: Dimethyl bis(N-tert-butoxycarbonyl)-L-selenocystine was synthesized as reported previously. (N-tert-butoxycarbonyl)-L-selenocysteine methyl ester was prepared in situ[86] in methanol or phosphate buffer. Compound 2 was added to the solution of (N-tert-butoxycarbonyl)-L-selenocysteine methyl ester in either methanol or phosphate buffer and incubated for 40 min, 24 h, and 120 h under N2 gas balloon. Additional amounts of NaBH4 were added at 12 h and 96 h to maintain the reducing conditions. Aliquots taken from methanol solution at each of the time points were concentrated in vacuo, mixed with water, and extracted with ethyl acetate. The organic layer was separated, concentrated in vacuo, re-dissolved in methanol and analyzed by LCMS. Aliquots taken from the phosphate buffer solution were extracted with ethyl acetate. The resulting organic layer was separated and concentrated in vacuo. The residue was re-dissolved in methanol and analyzed by LCMS. […] No additional spots were detected by TLC as well.
Covalent TGR inhibitor TRi-1 was used as a positive control for the reaction with (N-tert-butoxycarbonyl)-L-selenocysteine methyl ester. The reactivity of TRi-1 was tested similarly as described above for compound 2.

[6] = D0: diluted 1:100, activity determined immediately, list for plotting
[7] = D60: diluted 1:100, activity determined after 60 min, list for plotting

C#CCN(CCCNC(=O)c1c(F)c(F)c(N=[N+]=[N-])c(F)c1F)[C@@H]1C[C@@H]2C[C@H]([C@H]1C)C2(C)C [PRP]
IC50 (S. mansoni TGR; 15 min preincubation (enzyme + 100 µM NADPH + compound)): 34.9 ± 6.11 µM | inhibition at 15 µM (S. mansoni TGR; read-out: TGR % inhibition): 30.8% | inhibition at 30 µM (S. mansoni TGR; read-out: TGR % inhibition): 47.5% | inhibition at 66.7 µM (S. mansoni TGR; read-out: TGR % inhibition): 55.1% | labeling of TGR with NADPH versus without NADPH (recombinant TGR; 5 and 50 μM PRP): more effective | 800 nm Normalized Signal (recombinant TGR; PRP 2 µM, NADPH 0 µM): 57760 | 800 nm Normalized Signal (recombinant TGR; PRP 2 µM, NADPH 100 µM): 84928 | 800 nm Normalized Signal (recombinant TGR; PRP 10 µM, NADPH 0 µM): 151239 | 800 nm Normalized Signal (recombinant TGR; PRP 10 µM, NADPH 100 µM): 231567 | 800 nm Normalized Signal ([1]; PRP 5 µM, NADPH 0 µM): 1385 | 800 nm Normalized Signal ([1]; PRP 5 µM, NADPH 100 µM): 2194 | 800 nm Normalized Signal ([1]; PRP 50 µM, NADPH 0 µM): 298 | 800 nm Normalized Signal ([1]; PRP 50 µM, NADPH 100 µM): 1875 | labeling of S. mansoni histone deacetylase 8 ([1]; with or without NADPH): not labeled

COc1ccc([N+](=O)[O-])c(S(=O)(=O)c2ccc(Cl)cc2)n1 [TRi-1, reference compound]
reversibility of TGR inhibition (TGR [2]; 250 µM inhibitor, 100-fold jump dilution): irreversible | % Activity (ID list), D0 (TGR [2]; [6]): -1.4% and -0.0373% and 0.6% | % Inhibition (ID list), D0 (TGR [2]; [6]): 101.4% and 100.0% and 99.4% | % Activity (ID list), D60 (TGR [2]; [7]): 2.1% and 1.1% and 1.2% | % Inhibition (ID list), D60 (TGR [2]; [7]): 97.9% and 98.9% and 98.8% | % Activity, 0 min (TGR [2]; [0, D0]: 15 min preincubation inhibitor + TGR + NADPH, diluted 1:100, then activity determined immediately, relative to DMSO): -1.437% and -0.03726% and 0.6084% | Inhibitor (rate), 60 min (TGR [2]; [60, D60]: 15 min preincubation inhibitor + TGR + NADPH, diluted 1:100, then activity determined after 60 min, raw rate): 0.001123 and 0.0005896 and 0.0006645 | % Activity, 60 min (TGR [2]; [60, D60]: 15 min preincubation inhibitor + TGR + NADPH, diluted 1:100, then activity determined after 60 min, relative to DMSO): 2.121% and 1.115% and 1.1607% | Inhibitor (rate), -15 (TGR [2]; [-15]: 15 min preincubation inhibitor + TGR + NADPH, then activity determined, raw rate, replicates): 0.0012 and -0.0009 and -0.001 | % Activity, -15 (TGR [2]; [-15]: 15 min preincubation inhibitor + TGR + NADPH, then activity determined, relative to DMSO, replicates): 2.39% and -1.793% and -3.401% | % Inhibition (ID list) (TGR [2]; before dilution (-15), list for plotting): 101.0% and 101.8% and 97.0% | NADPH consumption by TGR after exposure (TGR [3]): converted TGR to a pro-oxidant enzyme | NADPH consumption (rate/ΔOD340) (TGR [3]; replicates): -0.001513 and -0.00148 and -0.001553 | Superoxide production, Pyrogallol red consumption monitored ΔA540 (TGR [4]; condition not given): -0.002664 and -0.002628 and -0.002752 | Superoxide production, Pyrogallol red consumption monitored ΔA540 (TGR [4]; second of the two columns per substance (condition not given)): -5.614e-5 and -5.998e-5 | reaction with thiol or selenol groups in GSH or protected selenocysteine [5]: An adduct between TRi-1 was detected

Source: publication PMC10287695, “Non-covalent inhibitors of thioredoxin glutathione reductase with schistosomicidal activity in vivo” (Nature Communications, 2023)
